Where two headings read alike, the source gives them in different places.

We go through 9 compounds from patent US20230105212A1, “BIPHENYL DERIVATIVE INHIBITOR, PREPARATION METHOD THEREFOR AND USE THEREOF” (SHANGHAI HANSOH BIOMEDICAL CO., LTD., priority 2020, published 2023).

Series [1] deals with CHO-PDL1/Jurkat-PD1 cell pathway. Kind of series: Inhibition of CHO-PDL1/Jurkat-PD1 cell pathway (NFAT luciferase reporter). In kind it is cell-based. The following applies: for EC50: 6 hours incubation, luciferase signal; for maximal fold induction: relative to the signal value of the non-dosed group, read-out: Maximum induction fold. The procedure:
Test Embodiment 3. Inhibitory Effect of the Compounds of the Present Disclosure on CHO-PDL1/Jurkat-PD1 Cell Pathway
Experimental purpose: The purpose of this test embodiment was to test the inhibitory effect of compounds on the CHO-PDL1/Jurkat-PD1 cell pathway.
Experimental method: Two stably transfected cell lines were included in this experiment, CHO-K1 cells stably transfected with PD-L1 and Jurkat cells stably transfected with PD-1 and NFAT luciferase reporter genes. Compounds were incubated with the two cell lines. Then, due to the inhibitory effect on the PD-1/PD-L1 pathway, the activation degree of Jurkat cells changed, so that the level of the reporter gene NFAT in the downstream of Jurkat cells changed, and the level of NFAT was characterized by detecting the signal value of luciferase, so that the inhibitory effect of the test compound on CHO-PDL1/Jurkat-PD1 pathway was characterized.
CHO-PDL1 cells (Promega, #J1252) were cultured to a suitable cell density. After digestion, the cells were resuspended by complete medium to become a suitable density of cell suspension. The cell suspension was plated 100 μL per well on a 96-well plate (Corning, #3610), and placed in a 37° C., 5% CO2 incubator and incubated overnight, and assay medium (RPMI 1640+2% FBS, RPMI 1640 Cat. No.: Gibco, #22400089, FBS Cat. No.: Gibco, #10091148) was used to prepare compound solutions of different concentrations. NFAT-luc2/PD1 Jurkat cells (Promega, #J1252) were collected and resuspended to the appropriate cell density using assay medium. The supernatant of the CHO-PDL1 cell culture plate was aspirated, and 40 μL of the prepared compound solution and 40 μL of resuspended NFAT-luc2/PD1 Jurkat cells were added, and incubated in a 5% CO2 incubator at 37° C. for 6 hours, and the cell plate was taken out, then 40 μL of One-Glo reagent (Promega, #E6120) was added to each well, shaked and mixed well, incubated in the dark at room temperature for 10 minutes, then put into a microplate reader and the luminescence program was used to read the luminescence value of the cell plate.
The EC50 value was fitted according to the compound concentration and the luminescence signal value, and the maximum induction fold of each compound relative to the signal value of the non-dosed group was calculated, as shown in Table 3.
(A reporter such as luciferase makes a cellular process visible.)

Series [2] addresses T1, PD-L1 protein on the surface of MC38-hPDL1 tumor cells (Homo sapiens, UniProt Q9NZQ7).
T1 construct: expressed in transfected cells; host or cells: MC38-hPDL1 (mouse colon cancer cells)
Briefly: Induction of endocytosis of PD-L1 on the surface of tumor cells (flow cytometry). It is filed as cell-based. The following applies: 16 hours incubation; for Emax: MC38-hPDL1 cells, read-out: MC38 maximum endocytosis rate; for IC50: inducing endocytosis of PD-L1, MC38-hPDL1 cells, read-out: MC38 IC50. Put shortly:
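IC50 comes from nonlinear fits of endocytosis rate, calculated from the loss of surface PE-anti-CD274 flow signal relative to vehicle. Cells were MC38 mouse colon cancer cells engineered to express high human PD-L1. Compound exposure lasted 16 h at 37 °C, 5% CO2.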

The next series has as its target T2, human PD-L1 protein (Homo sapiens, UniProt Q9NZQ7).
T2 construct: purchased Acro Biosystems PD1-H5229
Briefly: Thermal shift: melting temperature of PD-L1 protein. It is filed as binding. To be noted: read-out: ΔTm (° C.). Put shortly:
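Human PD-L1 at 2 μM final was tested in […], 150 mM NaCl with SYPRO Orange, heated 25→95 °C at 0.03 °C/s in a PCR melt-curve run. Tm was taken per treatment; ΔTm is the shift relative to DMSO vehicle.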

Series [3] in a line: Pharmacokinetics test in Balb/C mice. It is filed as in vivo. To be noted: male, mouse, po, p.o. 5 mg/kg, plasma. The procedure:
Test Embodiment 6. Pharmacokinetics Test in Balb/C Mice
Taking Balb/C mice as the test animals, the pharmacokinetic behavior in the plasma of mice of the following compound embodiments was studied when orally administered at a dose of 5 mg/kg.
Balb/C Mouse 6/embodiment, male, Shanghai Jisijie Laboratory Animal Co., Ltd., animal production license number (SCXK (Shanghai) 2013-0006 No. 311620400001794).
0.5% HPMC (1% Tween 80), dissolved by sonication, to prepare a clear solution or a homogeneous suspension.
Balb/C mice, male; p.o. after overnight fasting, respectively, at a dose of 5 mg/kg, administered in a volume of 10 mL/kg.
Before and after administration of mice, at 0, 0.5, 1, 2, 4, 6, 8 and 24 hours, 0.1 mL of blood was collected from the orbit, placed in an EDTA-K2 test tube, and centrifuged at 6000 rpm at 4° C. for 6 min to separate the plasma, stored at −80° C.
1) 40 μL of plasma samples were added to 160 μL of acetonitrile for precipitation, mixed and centrifuged at 3500×g for 5 to 20 minutes.
2) 100 μL of the supernatant solution after treatment was taken for LC/MS/MS to analyze the concentration of the compounds to be tested.
2.6 Liquid Phase Analysis • Liquid phase condition: Shimadzu LC-20AD pump • MS conditions: AB Sciex API 4000 Mass Spectrometer • Chromatographic column: phenomenex Gemiu 5 μm C18 50×4.6 mm • Mobile phase: A solution was aqueous 0.1% formic acid solution, B solution was acetonitrile • Flow rate: 0.8 mL/min • Elution time: 0 to 4.0 minutes, the eluent was as follows:
The main parameters of pharmacokinetics were calculated with WinNonlin 8.2, and the results of the mice pharmacokinetic experiments were shown in the following table: […]

For a further series, the target named is T3, human PD-1/PD-L1 binding (Homo sapiens, UniProt Q9NZQ7).
T3 construct: PD-L1-His protein (19 to 238 amino acids) (Abcam #ab167713); purchased Abcam (PD-L1-His); R&D (PD-1-Fc) ab167713; 1086-PD
Kind of series: Inhibition of human PD-1/PD-L1 binding (TR-FRET/HTRF). The following applies: TR-FRET, PD-L1-His and PD-1-Fc; read-out: PD-1/PD-L1 binding IC50. A digest of the protocol: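 PD-L1-His (aa 19–238, diluted to 10 nM) and PD-1-Fc (aa 25–167, diluted to 20 nM) incubated with compounds (10 μM or 1 μM top, 3-fold, 11 doses) 60 min at room temperature, then anti-6HIS Eu cryptate/anti-human IgG-XL665 added for 3 h RT or overnight 4 °C. HTRF 665/620 nm ratio gave inhibition and IC50.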
(In TR-FRET formats the signal depends on donor and acceptor labels being close together.)

Where [4] appears, read: compound 10 μM, PD-L1 protein 2 μM, Tm minus DMSO vehicle control.

T2 sequence (Q9NZQ7 19-238 limits assumed): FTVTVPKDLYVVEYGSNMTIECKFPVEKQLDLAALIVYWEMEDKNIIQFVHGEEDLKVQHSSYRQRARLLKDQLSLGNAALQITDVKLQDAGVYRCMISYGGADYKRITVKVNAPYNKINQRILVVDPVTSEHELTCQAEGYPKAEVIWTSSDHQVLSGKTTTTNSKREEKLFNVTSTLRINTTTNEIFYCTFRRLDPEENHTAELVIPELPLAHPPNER
T3 sequence (Q9NZQ7 19-238): as the sequence (Q9NZQ7 19-238 limits assumed) above
T1 sequence (Q9NZQ7 19-290): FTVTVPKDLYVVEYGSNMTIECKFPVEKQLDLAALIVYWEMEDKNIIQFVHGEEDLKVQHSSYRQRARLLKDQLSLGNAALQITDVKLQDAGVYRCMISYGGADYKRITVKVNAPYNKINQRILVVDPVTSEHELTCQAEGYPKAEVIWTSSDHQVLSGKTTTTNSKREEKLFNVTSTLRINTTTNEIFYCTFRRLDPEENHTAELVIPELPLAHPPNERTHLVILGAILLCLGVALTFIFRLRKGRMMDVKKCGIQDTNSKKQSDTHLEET

Regarding `CCN1CCc2c(nc(C(=O)Nc3cccc(-c4cccc(NC(=O)c5cc(OC)c(CNc6ccnc(C)c6F)cn5)c4C)c3Cl)n2C)C1` [Embodiment 78, N-(2-Chloro-3′-(5-(((3-fluoro-2-methylpyridin-4-yl)amino)methyl)-4-methoxypicolinamido)-2′-methyl-[1,1′-biphenyl]-3-yl)-5-ethyl-1-methyl-4,5,6,7-tetrahydro-1H-imidazo[4,5-c]pyridine-2-carboxamide], in series [1], the EC50 (usually the concentration giving half of the maximal effect) is 68 nM and the maximal fold induction came to 2.8.

As for `COc1cc(NCc2cnc(C(=O)Nc3cccc(-c4cccc(NC(=O)c5nc6c(n5C)CCN(CCO)C6)c4Cl)c3C)cc2OC)ccn1` [Embodiment 72, N-(2-Chloro-3′-(4-methoxy-5-(((2-methoxypyridin-4-yl)amino)methyl)picolinamido)-2′-methyl-[1,1′-biphenyl]-3-yl)-5-(2-hydroxyethyl)-1-methyl-4,5,6,7-tetrahydro-1H-imidazo[4,5-c]pyridine-2-carboxamide], in series [2], the Emax stood at 88% and the IC50 was 6.5 nM. Also, in series [1], the EC50 was found to be 73 nM and the maximal fold induction was determined as 3.1.

With `COc1nc(-c2cccc(-c3cccc(NC(=O)c4nc5c(n4C)CCN(C)C5)c3Cl)c2Cl)ccc1CN[C@@H]1CCCC[C@@H]1O` [Embodiment 176, N-(2,2′-Dichloro-3′-(5-((((1R,2S)-2-hydroxycyclohexyl)amino)methyl)-6-methoxypyridin-2-yl)-[1,1′-biphenyl]-3-yl)-1,5-dimethyl-4,5,6,7-tetrahydro-1H-imidazo[4,5-c]pyridine-2-carboxamide], in series [2], the Emax was found to be 97% and the IC50 came to 1.2 nM. Also, the ΔTm (commonly the change in melting temperature against a reference sample) at 10 µM at human PD-L1 protein (setting [4]) turned out to be 24.3 °C. Also, the MRT inf in series [3] (read-out: Average residence time MRT0−∞) was found to be 21.6 h. Moreover, the AUC(0-t) in series [3] (read-out: Curve area AUC0−t) amounted to 629 ng·h/mL. In series [3] (read-out: Drug concentration in plasma Cmax), the Cmax amounted to 55 ng/mL. The half-life in series [3] (read-out: Half life t1/2 (converted)) was 15.2 h. Moreover, the Tmax – broadly, the time from dosing to the highest level – in series [3] (read-out: Peak time tmax) stood at 2 h.

In the case of `COc1cc(C(=O)Nc2cccc(-c3cccc(NC(=O)c4nc5c(n4C)CCN(C)C5)c3Cl)c2C)ncc1CNc1ccnc(C)c1F` [Embodiment 6, N-(2-Chloro-3′-(5-(((3-fluoro-2-methylpyridin-4-yl)amino)methyl)-4-methoxypicolinamido)-2′-methyl-[1,1′-biphenyl]-3-yl)-1,5-dimethyl-4,5,6,7-tetrahydro-1H-imidazo[4,5-c]pyridine-2-carboxamide], in series [2], the Emax stood at 93% and the IC50 was 1.1 nM. In addition, in series [1], the EC50 turned out to be 60 nM and the maximal fold induction stood at 3.3.

Regarding `COc1cc(C(=O)Nc2cccc(-c3cccc(NC(=O)c4nc5c(n4C)CCN(C)C5)c3Cl)c2C)ncc1CN1CC[C@H](F)C1` [Embodiment 26, (S)—N-(2-Chloro-3′-(5-((3-fluoropyrrolidin-1-yl)methyl)-4-methoxypicolinamido)-2′-methyl-[1,1′-biphenyl]-3-yl)-1,5-dimethyl-4,5,6,7-tetrahydro-1H-imidazo[4,5-c]pyridine-2-carboxamide], in series [1], a half-maximal response (EC50) required 90 nM and the maximal fold induction stood at 3.9.

As to `COc1nc(-c2cccc(-c3cccc(NC(=O)c4nc5c(n4C)CCN(C)C5)c3Cl)c2Cl)ccc1CN[C@@H](CO)C(=O)O` [Embodiment 232, ((6-(2,2′-Dichloro-3′-(1,5-dimethyl-4,5,6,7-tetrahydro-1H-imidazo[4,5-c]pyridine-2-carboxamido)-[1,1′-biphenyl]-3-yl)-2-methoxypyridin-3-yl)methyl)-L-serine], the IC50 at human PD-1/PD-L1 binding came to 1.7 nM. Besides, the Emax in series [2] was 94%. Also, on human PD-L1 protein (setting [4]), the ΔTm at 10 µM turned out to be 11.1 °C.

Regarding `COc1nc(-c2cccc(-c3cccc(NC(=O)c4nc5c(n4C4CC4)CCN(C)C5)c3Cl)c2Cl)ccc1CN1CC2(CC(NC(C)=O)C2)C1` [Embodiment 246, N-(3′-(5-((6-Acetylamino-2-azaspiro[3.3]heptan-2-yl)methyl)-6-methoxypyridin-2-yl)-2,2′-dichloro-[1,1′-biphenyl]-3-yl)-1-cyclopropyl-5-methyl-4,5,6,7-tetrahydro-1H-imidazo[4,5-c]pyridine-2-carboxamide], the IC50 on human PD-1/PD-L1 binding was 5.4 nM. In addition, the Emax in series [2] is 94%. Moreover, the ΔTm at 10 µM at human PD-L1 protein (setting [4]) came out at 11 °C.

On to `COc1nc(-c2cccc(-c3cccc(NC(=O)c4nc5c(n4C)CCN(C)C5)c3Cl)c2Cl)ccc1CN1CC(C)(O)C1` [Embodiment 130, N-(2,2′-Dichloro-3′-(5-((3-hydroxy-3-methylazetidin-1-yl)methyl)-6-methoxypyridin-2-yl)-[1,1′-biphenyl]-3-yl)-1,5-dimethyl-4,5,6,7-tetrahydro-1H-imidazo[4,5-c]pyridine-2-carboxamide], for which the IC50 at human PD-1/PD-L1 binding was determined as 4.8 nM; in series [2] it was 1.2 nM. The Emax in series [2] stood at 97%. Moreover, the ΔTm at 10 µM at human PD-L1 protein amounted to 18.1 °C.

For `COc1nc(-c2cccc(-c3cccc(NC(=O)c4nc5c(n4C)CCN(C)C5)c3Cl)c2Cl)ccc1CN1CC2(C1)CN(C(=O)CC#N)C2` [Embodiment 191, N-(2,2′-Dichloro-3′-(5-((6-(2-cyanoacetyl)-2,6-diazaspiro[3.3]heptan-2-yl)methyl)-6-methoxypyridin-2-yl)-[1,1′-biphenyl]-3-yl)-1,5-dimethyl-4,5,6,7-tetrahydro-1H-imidazo[4,5-c]pyridine-2-carboxamide], the IC50 on human PD-1/PD-L1 binding turned out to be 4.8 nM. In series [2], the Emax was found to be 97%. In addition, at human PD-L1 protein (setting [4]), the ΔTm at 10 µM worked out at 11.7 °C.
